Legend:
S. aureus = assay: LGX test on volunteers' nasal swabs with prothrombin or prethrombin; format: cell-based, Staphylococcus aureus; details: for samples tested positive for S. aureus: threshold 20,000 RFU
Experimental: A population of 113 volunteers were administered a “set” of swabs, comprising two swabs that were pre-moistened with sterile H2O, and one swab that was dry. Each volunteer swabbed the internal periphery of each nostril with the two moistened swabs. Each volunteer then subsequently swabbed the internal periphery of each nostril with the dry swab. The swabs were then placed into amies transport medium to maintain bacterial cell viability. Each sample was anonymous and the study was randomised.
A 100 μL solution of 100 μM LGX with either 1×prothrombin or 1×prethrombin (buffered to pH 8.5 with Tris base and NaCl), was pipetted into sterile 1.5 mL eppendorf tubes. Each moistened swab was placed into the eppendorf tube, and cut to a length to facilitate closure of the tube, with a pair of sterilised scissors. Each tube was subjected to vigorous agitation and the swab tips were removed with sterile forceps. The remaining solution was subsequently pipetted into a microtitre plate (Nunclon 96 well plates). The relative fluorescence of the sample was then recorded every fifteen minutes over a six hour time period (λex.=488 nm and λem=525 nm).
In tandem with this, the remaining swabs (in amies transport medium) were transferred onto pre warmed mannitol salt agar (chromogenic agar for the determination of S. aureus) plates and incubated for up to 48 hours at 37° C. The colour change and colony appearance of the bacteria was noted. […] Following this, 20 separate, discrete colonies were sub-cultured onto nutrient agar and also onto Baird Parker Agar (agar for the determination of S. aureus and S. epidermidis). After an overnight culture at 37° C., colony morphology and appearance was observed (S. aureus colonies are large with a pale “halo” surrounding the colonies, S. epidermidis colonies are small and black).
Additionally, isolates from the nasal swabs cultured on nutrient agar were tested for coagulase activity using a staphylase test kit (oxoid). Loopfuls of bacteria were assayed based on coagulase mediated clumping of fibrinogen-sensitised ovine blood cells.
A final test to determine the identification of the bacteria within each sample, a gram stain was performed. This is based on the presence of peptidoglycan in gram positive cells and their ability to retain crystal violet. S. aureus is a gram positive bacterium. Briefly, a drop of sterile dH2O was placed on a microscope slide and a small amount of culture was applied to this and allowed to air dry. The slide was passed though a flame to fix the bacteria. Crystal Violet was applied to each slide, followed by washing with dH2O. Iodine was then added to the slides, followed by washing with dH2O and subsequent decolourisation with ethanol and another wash with dH2O. Each slide was counterstained with carbol fushchin (for gram negative), rinsed again and allowed to dry.
Each swab sample was examined for the presence of S. aureus based on the above identification techniques, and termed “positive” or “negative”. The results were compared to the finding of the assay of the current invention (LGX test), with either prethrombin or prothrombin, and plotted on a bar chart as a function of relative fluorescence units.

S. warneri = assay: LGX system, S. warneri; format: cell-based
Experimental: (§1) Each sample was rinsed liberally in sterile 1×PBS and varying concentrations of bacterial suspension from 10^0-10^6 were generated by serial dilution in 1×PBS. Additionally, bacterial cultures were furthermore maintained on nutrient agar to assess the coagulase status of the isolate.
(§2) To determine the effects of varying bacterial concentrations with respect to bacterial strains and concentrations of the compounds according to the present invention on staphylocoagulase activity, 100 and 50 μM solutions containing LGX were prepared in 1×PBS with the addition of 0.05 M Tris Buffer and 0.1 M NaCl to maintain a pH of 8.5 using LGX dissolved in MeOH so that final concentration of methanol was no more than 2.5%. […]
(§3) The plate reader used was a Fluostar Optima, and the plates used were Nunclon Surface 96 well plates. […]
(§4) To determine the effects of varying bacterial concentrations with respect to bacterial strains and LGX concentrations on staphylocoagulase activity, 100 and 50 μM solutions of LGX were prepared in 1×PBS with the addition of 0.05 M Tris Buffer and 0.1 M NaCl to maintain a pH of 8.5 using LGX dissolved in MeOH so that final concentration of methanol was no more than 2.5%. […] The plate reader used was a Fluostar Optima, and the plates used were Nunclon Surface 96 well plates.

MRSA = assay: LGX staphylocoagulase fluorescence assay, MRSA isolates; format: cell-based, Staphylococcus aureus
Experimental: as §1
(§5) To determine the effects of varying bacterial concentrations with respect to bacterial strains and concentrations of the compounds according to the present invention on staphylocoagulase activity, 100 and 50 μM solutions containing LGX were prepared in 1×PBS with the addition of 0.05 M Tris Buffer and 0.1 M NaCl to maintain a pH of 8.5 using LGX dissolved in MeOH so that final concentration of methanol was no more than 2.5%. Furthermore, an appropriate concentration (100 μM and 50 μM, respectively) of human prothrombin was added to the solution.
(§6) The plate reader used was a Fluostar Optima, and the plates used were Nunclon Surface 96 well plates. Positive controls for each experiment was a strain of MRSA, and the negative control for each experiment was a strain of E. coli, both of which were picked at random to ensure there was no bias within the data. A 1:1 ratio of the LGX solution with PBS was also assayed as “LGX alone” sample, which has been designated as a black line on the graphs below. n=3 cultures were assayed in each case.
(§7) Clinical isolates of Methicillin Resistant Staphylococcus Aureus (MRSA), Methicillin Sensitive Staphylococcus Aureus (MSSA), Staphylococcus Epidermidis, Eschericia coli and other staphyloccal species were cultured on nutrient agar prior to being grown overnight in nutrient broth under shaking conditions at 37° C. Each sample was rinsed liberally in sterile 1×PBS and varying concentrations of bacterial suspension from […] were generated by serial dilution in 1×PBS. Additionally, bacterial cultures were furthermore maintained on nutrient agar to assess the coagulase status of the isolate.
as §4, with “2.5%. Furthermore, an appropriate concentration (100 μM and 50 μM, respectively) of human prothrombin was added to the solution. 90 μl of LGX solution in addition to each respective bacterial isolate at varying concentrations was added to a microtitre plate.” for “2.5%.”

M. luteus = assay: LGX system, M. luteus; format: cell-based
Experimental: as §1, §2, §3, §4

[1] = test system: coagulase negative staphylococci; assay: LGX staphylocoagulase fluorescence assay, coagulase negative staphylococci panel; format: cell-based
Experimental: as §1, §5, §6

MRSA and MSSA = assay: LGX staphylocoagulase fluorescence assay, MRSA and MSSA together; format: cell-based, Staphylococcus aureus
Experimental: as §1, §5, §6, §7
as §4, with “2.5%. Furthermore, an appropriate concentration (100 μM and 50 μM, respectively) of human prothrombin was added to the solution. 90 μl of LGX solution in addition to each respective bacterial isolate at varying concentrations was added to a microtitre plate.” for “2.5%.”

CC(C)[C@H](NC(=O)OC(C)(C)C)C(=O)N1CCC[C@H]1C(=O)N[C@@H](CCCNC(=N)N)C(=O)Nc1ccc2c(c1)Oc1cc(NC(=O)[C@H](CCCNC(=N)N)NC(=O)[C@@H]3CCCN3C(=O)[C@@H](NC(=O)OC(C)(C)C)C(C)C)ccc1C21OC(=O)c2ccccc21 (stereo partly drawn) [LGX, Rho-(Arg-Pro-Val-NHBoc)2]
time in which S. aureus was efficiently detected (S. aureus; 100 μM LGX with 1×prethrombin): 15 min
samples tested positive for S. aureus (S. aureus; 100 μM LGX with 1×prethrombin, 15 minutes): approximately 49 samples
samples tested positive for S. aureus (S. aureus; 100 μM LGX with 1×prethrombin, 60 minutes): approximately 49 samples
time in which S. aureus was efficiently detected (S. aureus; 100 μM LGX with 1×prothrombin): 15 min
samples tested positive for S. aureus (S. aureus; 100 μM LGX with 1×prothrombin, 15 minutes, 113 volunteers): approximately 29 samples
samples tested positive for S. aureus (S. aureus; 100 μM LGX with 1×prothrombin, 60 minutes): approximately 34 samples
LGX SYSTEM (S. warneri): −
samples failed to reach maximum fluorescence within the 6 hour time frame (MRSA; 50 μM LGX, MRSA 10^2): 60%
samples reaching the maximum reading of 65,000 RFU within 4 hours (MRSA; 50 μM LGX, MRSA 10^2): 40%
samples failed to reach maximum fluorescence within the 6 hour time frame (MRSA; 50 μM LGX, MRSA 10^3): 40%
samples reaching the maximum reading of 65,000 RFU within 4 hours (MRSA; 50 μM LGX, MRSA 10^3): 60%
samples failed to reach maximum fluorescence within 5 hours (MRSA; 50 μM LGX, MRSA 10^5): 20%
samples reaching the maximum reading of 65,000 RFU within 2 hours (MRSA; 50 μM LGX, MRSA 10^5): 60%
samples failed to reach maximum (MRSA; 50 μM LGX, MRSA 10^6): 10%
samples reaching the maximum reading of 65,000 RFU within 2 hours (MRSA; 50 μM LGX, MRSA 10^6): 90%
time by which maximum fluorescence level was reached, all samples (MRSA; 50 μM LGX, MRSA 10^6): ≤ 2 h
time for fluorescence readings to reach a maximum (MRSA; 50 μM LGX, MRSA positive control at 10^6, 10^5 and 10^3): almost immediately or within an hour
time for fluorescence readings to reach a maximum (MRSA; 50 μM LGX, MRSA positive control, lower concentrations): 6 h
samples achieving a fluorescence reading of 20,000 within 1 hour (MRSA; 100 μM LGX, MRSA 10^2): 95%
samples in which fluorescence reached its upper limits within 4 hours (MRSA; 100 μM LGX, MRSA 10^2): 40%
time for fluorescence to reach a maximum (MRSA; 100 μM LGX, MRSA 10^2, FIG. 14): approximately 3 hours
samples in which fluorescence reached its upper limits within 3 hours (MRSA; 100 μM LGX, MRSA 10^3): 40%
MRSA reaching maximum fluorescence over the 6 hours time period (MRSA; 100 μM LGX, MRSA 10^4): 90%
samples in which fluorescence reached its upper limits within 2 hours (MRSA; 100 μM LGX, MRSA 10^4): 50%
isolates failed to reach maximum fluorescence over 6 hours (MRSA; 100 μM LGX, MRSA lower concentrations of 10^3 and 10^4 (so in the source)): 40%
time for fluorescence to reach a maximum (MRSA; 100 μM LGX, MRSA positive control, all concentrations (10^4, 10^3 and 10^3 as printed)): ≤ 3 h
LGX SYSTEM (MRSA; MRSA, detection of coagulase positive samples): +
LGX SYSTEM (M. luteus): −
coagulase result with LGX system (M. luteus): negative
samples above 20,000 fluorescence units after 1 hour ([1]; 50 μM LGX, all concentrations of bacteria, coagulase negative staphylocci): 0%
fluorescence over the duration of the experiment ([1]; 50 μM LGX, coagulase negative strains 10^6, 10^5, 10^3 and 10^2, FIG. 8): remain consistently low
fluorescence response within 1 hour ([1]; 50 μM or 100 μM LGX, coagulase negative staphylococci): ≤ 5000 fluorescence units
fluorescence across the 6 hour time period ([1]; 100 μM LGX, coagulase negative strains, FIG. 9): remained consistently low
isolates failed to reach a fluorescence reading of 20,000 within 30 minutes (MRSA and MSSA; 50 μM LGX, 10^2 cell concentration of MRSA and MSSA): 20%
isolates failed to reach a fluorescence reading of 20,000 within 30 minutes (MRSA and MSSA; 50 μM LGX, 10^3 cell concentration of MRSA and MSSA): 5%
time for fluorescence to reach a maximum (MRSA and MSSA; 50 μM LGX, MRSA and MSSA 10^5, FIG. 13): approximately 3 hours
fluorescence reading reached (almost instantaneous reaction) (MRSA and MSSA; 50 μM LGX, MRSA and MSSA 10^6, FIG. 13): 65,000 RFU
samples above 20,000 fluorescence units after 1 hour (MRSA and MSSA; 50 μM LGX, all concentrations of bacteria, MRSA and MSSA): more than 80%
samples with a fluorescence reading greater than 20,000 within 30 minutes (MRSA and MSSA; 100 μM LGX, 10^3 cell concentration and above): 100%
fluorescence reading reached (almost instantaneous reaction) (MRSA and MSSA; 100 μM LGX, MRSA and MSSA 10^4 and 10^3, and MSSA 10^2, FIG. 14): 65,000 RFU
response compared with 100 and 500 μM coumarin system (MRSA and MSSA; 100 μM LGX, MRSA and MSSA at 10^2, FIG. 12): superior response in terms of selectivity and speed
lowest bacterial concentration at which presence of bacteria is detected (MRSA and MSSA; no culturing, fluorescence 525 nm (ex 488 nm)): 10^2
sensitivity advantage over N-t-BOC-val-pro-arg-7-amido-4-methylcoumarin (MRSA and MSSA; response at 10^2 Staphylococcus aureus units, 525 nm (ex 488 nm)): several orders of magnitude (10^4 bacteria)
sensitivity relative to the existing commercial dye system (MRSA and MSSA; staphylothrombin assay for detection of MRSA and MSSA, estimate): 10 times

From patent US10400263B2, “Tripeptide rhodamine compound” (Kingston Uninversity Higher Education Corporation, priority 2012, dated 2019)
